According to the NIST ThermoML archive (doi:10.1021/je2002539):
± gives the expanded uncertainty stated by the source.

Test: refractive index (Na D-line) (dimensionless)
Details: 298.15 K; 101.33 kPa; Liquid; Standard Abbe refractometry

In order of rising refractive index:
1. O [water]  1.33248 ± 0.00031
2. CCCO [propan-1-ol]  1.38305 ± 0.00033
3. CCCCCO [pentan-1-ol]  1.40703 ± 0.00033
4. CCCCCCO [hexan-1-ol]  1.4158 ± 0.00033
5. CCCCCCCCO [octan-1-ol]  1.42695 ± 0.00033
6. CCCCCCCCCO [nonan-1-ol]  1.43084 ± 0.00033
7. CCCCCCCCCCO [decan-1-ol]  1.43436 ± 0.00033
8. CCCCCCCCCCCCO [dodecan-1-ol]  1.44058 ± 0.00033
